# Experimental data: US20230341377A1, “DISCONNECTION AGENTS” (DC Europa Limited, priority 2020, published 2023)
# Assays:
# PKCε = molecular target: T1, PKCε (Homo sapiens, UniProt Q02156); design: key: +—activation; ++—strong activation; conditions: nPKCs, gene PRKCE; cited from earlier work
# T1 sequence (Q02156 1-737): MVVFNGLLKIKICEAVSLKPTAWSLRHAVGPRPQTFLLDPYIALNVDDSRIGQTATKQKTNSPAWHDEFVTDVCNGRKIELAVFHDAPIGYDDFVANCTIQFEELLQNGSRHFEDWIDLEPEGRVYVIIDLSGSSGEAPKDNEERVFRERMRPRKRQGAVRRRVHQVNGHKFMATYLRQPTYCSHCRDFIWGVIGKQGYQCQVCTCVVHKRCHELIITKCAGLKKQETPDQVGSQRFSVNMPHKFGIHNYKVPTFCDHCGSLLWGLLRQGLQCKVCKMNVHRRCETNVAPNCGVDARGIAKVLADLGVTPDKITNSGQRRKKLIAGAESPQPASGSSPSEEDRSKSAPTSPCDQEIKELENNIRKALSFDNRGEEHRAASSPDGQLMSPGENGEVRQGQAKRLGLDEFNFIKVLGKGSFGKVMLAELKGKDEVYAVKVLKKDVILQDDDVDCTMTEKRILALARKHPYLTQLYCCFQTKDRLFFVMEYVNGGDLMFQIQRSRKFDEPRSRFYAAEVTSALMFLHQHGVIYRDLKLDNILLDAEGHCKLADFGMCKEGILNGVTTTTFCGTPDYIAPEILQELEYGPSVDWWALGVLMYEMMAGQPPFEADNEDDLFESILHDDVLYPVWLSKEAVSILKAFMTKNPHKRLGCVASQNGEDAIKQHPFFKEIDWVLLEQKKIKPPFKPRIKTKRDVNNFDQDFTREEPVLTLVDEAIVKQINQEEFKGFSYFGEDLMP
# [1] = tested on: patient-derived S24 glioblastoma model; assay: Example 4: orthotopic S24 glioblastoma in mouse brain, TPPB and radiotherapy, in vivo MPLSM imaging; design: species or system NMRI nude mice; conditions: for tumour burden / tumour connectivity: TPPB 3 doses i.p. days 13, 14, 15 at 200 μg/kg
# From the text: 8-10 weeks old male NMRI nude mice were used for all studies with human primary brain tumour cells. Cranial window implantation in mice was done in a modification of what has been previously described (see References), including a custom-made titanium ring for painless head fixation during imaging. 2-3 weeks after cranial window implantation, 30,000 tumour cells of the patient-derived S24 glioblastoma model were stereotactically injected into the mouse brain at a depth of 500 μm. Tumours were injected on day minus 35, i.e., 35 days before treatment start. Treatment was started on day 0.
# Control animals (top row of FIG. 3) were untreated. TPPB continuous treatment (middle row) was administered intraperitoneally once per day on days 0 to 28 at variable daily doses ranging from 10 to 700 μg/kg. TPPB 3 doses (bottom row of FIG. 3) were administered intraperitoneally once per day on days 13, 14 and 15 at 200 μg/kg.
# Tumours were irradiated with 7 Gy on three consecutive days (days 14, 15, 16, total dose 21 Gy) in regions matching in tumour cell density using a 6 MV linear accelerator with a 6 mm collimator (adjusted to the window size) at a dose rate of 3 Gy min^−1 (Faxitron MultiRad225). The used radiation schedule is in the range of the commonly prescribed 60 Gy in 2 Gy. fractions for malignant glioma patients, assuming an α/β of ˜10 in the linear quadratic model and taking into account the radiation time of 3 days.
# MPLSM imaging was done with a Zeiss 7MP microscope (Zeiss) equipped with a Coherent Chameleon Ultrall laser (Coherent). MPLSM images were acquired by the ZEISS ZEN Software.
# White to light gray areas of images in FIG. 3 depict S24 glioblastoma cells growing in the mouse brain. Black or dark gray areas depict vessels or background.
# [2] = tested on: Hs578 cell line for human breast cancer, U373 cell line of human glioblastoma, and HepG2 hepatocellular carcinoma cells; assay: SMS assay (small molecule sharing), cell dye-sharing between cancer cells, cell lines pooled; assay type: cell-based; conditions: various doses that are not cytotoxic, in one or more cell lines
# From the text: The SMS assay was developed to assess the transfer of cell dye (for example the acetoxymethyl [AM]-based Calcein AM), between cancer cells. The SMS assay can be applied to any cell lines forming tumour networks such as tumour microtubes (TM) or tunneling nanotubes (TNT), which enable the transfer of molecules across cells. The SMS assay can be used to assess networking capabilities of any cancer cell lines including HepG2 hepatocellular carcinoma cells, Hs578T cell line for human breast cancer, and U373 cell line for human glioblastoma.
# The SMS assay is illustrated in FIG. 1. For the SMS assay, two sets of cells are stained with the cell dye of choice and a customary cell tracker dye (for example cell tracker blue) using established staining techniques (steps 1 and 2). Each set of cells are then co-incubated with the compound of interest to assess its capabilities to modulate the cells small molecule sharing characteristics (step 3). Then the two sets of cells are combined on a plate, for example at a ratio of 1:1, and cultured in the presence of the compound of interest (Step 4).
# Finally, live cells are evaluated for viability and analyzed by flow cytometry for the uptake of cell dye in the […] cells (Step 5). The comparison of cell tracker uptake against positive and negative control enables the assessment of the compound's ability to modulate the tumour networks including those formed by TM and TNTs
# The SMS assay has been applied to assess the modulation of network sharing capabilities of Protein Kinase C Modulators (PKCm) at various concentrations in the Hs578 cell line for human breast cancer, U373 cell line of human glioblastoma, and HepG2 hepatocellular carcinoma cells. PBS vehicle was used as negative control and the PKCm PHORBOL 12-MYRISTATE 13-ACETATE (PMA) at a concentration of 5 nM was used as the positive control.
# FIG. 2A and FIG. 2B show the percentage of cell tracker cells that were accepting the cell dye transfer from separately stained donor cells according to the SMS assay of Example. The percentage of acceptor cells detected is shown in comparison to vehicle (upper horizontal line) and PMA at 5-10 nM concentration (lower horizontal line). Active PKCm in the SMS assay (FIG. 2A) show a decrease in acceptor cells relative to vehicle at certain concentration. […] The upper limit of the tested concentrations was determined as the maximal non-cytotoxic dose.
smiles,measurement,setting,value
"CC(C)[C@H]1C(=O)N[C@H](CO)Cc2cc(NC(=O)/C=C/C=C/c3ccc(C(F)(F)F)cc3)ccc2N1C [TPPB, (2E,4E)-N-[(2S,5S)-1,2,3,4,5,6-Hexahydro-5-(hydroxymethyl)-1-methyl-2-(1-methylethyl)-3-oxo-1,4-benzodiazocin-8-yl]-5-[4-(trifluoromethyl)phenyl]-2,4-pentadienamide]",activation of PKCε,PKCε,+
same,tumour burden,"[1]; RTx 7 Gy days 14, 15, 16, day 28",marked tumour regression
same,tumour connectivity,"[1]; RTx, day 28",markedly reduced
same,tumour burden,"[1]; RTx, days 35 and 42",complete remission from the tumour burden
same,tumour connectivity,"[1]; RTx, days 35 and 42",completely disconnected
same,tumour burden and connectivity versus control,"[1]; TPPB continuous i.p. once per day days 0 to 28, 10 to 700 μg/kg, RTx 7 Gy days 14, 15, 16, days 0 to 35",no effect against control
same,inhibition of cell dye-sharing in the SMS assay,[2],marked inhibition of cell dye-sharing
